Source: paper PMC7129073 (Clinical Microbiology and Infection, 2015)
Values after ≈ are worked out from the molar mass of the structure shown.

Legend:
MRSA = assay: Disk diffusion; format: cell-based, Staphylococcus aureus; conditions: 200 isolates
MDR-MRSA = assay: MIC, MBC; format: cell-based, Staphylococcus aureus; conditions: time kill, two strains
E. faecalis = assay: NCCLS broth microdilution MIC, 50 mg/L calcium; format: cell-based
CA-MRSA = assay: MIC, MBC; format: cell-based, Staphylococcus aureus
S. aureus = assay: NCCLS broth microdilution MIC, 50 mg/L calcium; format: cell-based
[1] = tested on: beta-haemolytic Streptococcus spp.; assay: NCCLS broth microdilution MIC, 50 mg/L calcium; format: cell-based
[2] = tested on: coagulase-negative Staphylococci; assay: NCCLS broth microdilution MIC, 50 mg/L calcium; format: cell-based
[3] = tested on: viridans group Streptococcus spp.; assay: NCCLS broth microdilution MIC, 50 mg/L calcium; format: cell-based
E. faecium = assay: NCCLS broth microdilution MIC, 50 mg/L calcium; format: cell-based
Enterococcus spp. = assay: NCCLS broth microdilution MIC, 50 mg/L calcium; format: cell-based
[4] = tested on: viridans group streptococci (VgS) and Streptococcus bovis; assay: Broth microdilution and disk diffusion; format: cell-based
S. pneumoniae [5] = assay: MIC of invasive strains, Saint George Hospital 2001–2004; format: cell-based, Streptococcus pneumoniae
H.influenzae = assay: Broth microdilution; format: cell-based, Haemophilus influenzae; conditions: Haemophilus influenzae
[6] = tested on: Streptococcus pyogenes (SPY); assay: MIC; format: cell-based; conditions: 2522 isolates
[7] = tested on: foreign body infection Staphylococcus epidermidis strains; assay: NCCLS disk diffusion; format: cell-based; conditions: 86 strains
S. pneumoniae (SPN) = assay: SENTRY Brazil, NCCLS broth microdilution; format: cell-based, Streptococcus pneumoniae
[8] = tested on: ‘wild type’ Staphylococcus epidermidis skin isolates; assay: NCCLS disk diffusion; format: cell-based; conditions: 52 isolates
S. pneumoniae [9] = assay: Susceptibility of bacteraemia isolates of children, Taiwan; format: cell-based, Streptococcus pneumoniae; conditions: 79 isolates
[10] = tested on: viridans group streptococci (VGS); assay: MIC; format: cell-based
ERSP = assay: Broth microdilution; format: cell-based, Streptococcus pneumoniae
N.gonorrhoeae = assay: microbe, parasite or virus in culture; format: cell-based; conditions: Neisseria gonorrhoeae
PRSP = assay: Broth microdilution; format: cell-based, Streptococcus pneumoniae
S. pneumoniae [11] = assay: Broth microdilution; format: cell-based, Streptococcus pneumoniae; conditions: 275 isolates
S. pneumoniae [12] = assay: Broth microdilution; format: cell-based, Streptococcus pneumoniae
S. pneumoniae (Sp) = assay: Broth microdilution, point prevalence study Spain; format: cell-based, Streptococcus pneumoniae; conditions: 360 isolates, February 2004; penicillin I+R
S. pneumoniae [13] = format: cell-based, Streptococcus pneumoniae
S.pneumoniae = assay: Italian survey of severe infections 2003, MIC; format: cell-based, Streptococcus pneumoniae
[14] = tested on: Haemophilus influenzae (HI); assay: MIC; format: cell-based; conditions: 7489 isolates
Streptococcus pneumoniae [15] = assay: BSAC agar dilution, lower respiratory isolates UK and Ireland; format: cell-based
S. pneumoniae [16] = assay: E-test MIC, children with URTI, Brazil; format: cell-based, Streptococcus pneumoniae
[17] = tested on: Moraxella catarrhalis (MC); assay: MIC; format: cell-based; conditions: 2497 isolates
F. necrophorum = assay: E-test, 13 clinical isolates; format: cell-based, Fusobacterium necrophorum
[18] = tested on: Streptococcus pneumoniae (SPN); assay: MIC; format: cell-based; conditions: 8378 isolates
S. pneumoniae [19] = assay: PROTEKT Italy, NCCLS microdilution; format: cell-based, Streptococcus pneumoniae
Streptococcus pneumoniae [20] = assay: Susceptibility testing; format: cell-based; conditions: 99 isolates tested
[21] = NCCLS breakpoints (Amox/Clav 2/1 mcg/mL)

## CCCCCCCCCC(=O)N[C@@H](Cc1c[nH]c2ccccc12)C(=O)N[C@H](CC(N)=O)C(=O)N[C@@H](CC(=O)O)C(=O)N[C@@H]1C(=O)NCC(=O)N[C@@H](CCCN)C(=O)N[C@@H](CC(=O)O)C(=O)N[C@H](C)C(=O)N[C@@H](CC(=O)O)C(=O)NCC(=O)N[C@H](CO)C(=O)N[C@@H]([C@H](C)CC(=O)O)C(=O)N[C@@H](CC(=O)c2ccccc2N)C(=O)O[C@@H]1C [daptomycin]
MRSA
  sensitivity: All isolates were sensitive
MDR-MRSA
  Δ Log10 CFU/ml: −4.12 Log10 CFU/ml
E. faecalis
  % S: 100.0%
  MIC range: ≤0.06 to 4 µg/mL
CA-MRSA; against all strains (CA-MRSA and MDR-MRSA)
  time to 99.9% kill, as early as: 4 h
CA-MRSA; time kill, two strains
  Δ Log10 CFU/ml: −3.88 Log10 CFU/ml
S. aureus; OXA-R
  % S: 99.0%
  MIC range: 0.12 to 2 µg/mL
S. aureus; OXA-S
  % S: 99.9%
  MIC range: ≤0.06 to 2 µg/mL
[1]
  % S: 100.0%
  MIC range: ≤0.06 to 0.5 µg/mL
[2]; OXA-R
  % S: 100.0%
  MIC range: ≤0.06 to 1 µg/mL
[2]; OXA-S
  % S: 100.0%
  MIC range: 0.12 to 1 µg/mL
[3]
  MIC range: ≤0.06 to 2 µg/mL
E. faecium; VAN-G (77)
  % S: 97.4%
  MIC range: 1—8 mg/L
E. faecium; VAN-R
  % S: 100.0%
  MIC range: 1—4 mg/L
Enterococcus spp.
  % S: 100.0%
  MIC range: 0.5 to 4 µg/mL
[4]
  MIC90, range between species: 0.06 − 1 mg/L
[4]; 915 isolates, daptomycin breakpoint ≤ 1 mg/L
  Susceptible isolates: 99.9%

## CC1(C)S[C@@H]2[C@H](NC(=O)Cc3ccccc3)C(=O)N2[C@H]1C(=O)O [penicillin]
S. pneumoniae [5]
  % S: 46%
  %R: 54%
H.influenzae
  MIC90: > 16 µg/mL
[6]
  MIC90: 0.03 ig/ml
[7]
  % resistant: More than 30%
S. pneumoniae (SPN); 1998
  % R (> 2 mg/L) to PEN: 3%
  % S: 84%
S. pneumoniae (SPN); 1999
  % R (> 2 mg/L) to PEN: 6%
  % S: 83%
S. pneumoniae (SPN); 2000
  % R (> 2 mg/L) to PEN: 5%
  % S: 75%
S. pneumoniae (SPN); 2001
  % R (> 2 mg/L) to PEN: 8%
  % S: 82%
S. pneumoniae (SPN); 2002
  % R (> 2 mg/L) to PEN: 8%
  % S: 78%
S. pneumoniae (SPN); 2003
  % R (> 2 mg/L) to PEN: 10%
  % S: 72%
[8]
  % resistant: 46.2%
S. pneumoniae [9]
  nonsusceptible isolates (MIC > 0.1 μg/mL): 82%
[10]
  MIC50: 0.06 µg/mL (≈ 0.179 µM)
  MIC90: 0.5 µg/mL (≈ 1.5 µM)
  MIC range of isolates with reduced susceptibility: 0.25 to 4 µg/mL
[10]; 107 strains
  isolates with reduced susceptibility: 18.7%
ERSP; [21]
  %Sus: 18.6%
ERSP; Streptococcus pneumoniae
  MIC90: 4 µg/mL (≈ 12 µM)
N.gonorrhoeae; strain 76mu6
  MIC: 16 µg/mL (≈ 47.8 µM)
N.gonorrhoeae; strain 76mu10
  MIC: 16 µg/mL (≈ 47.8 µM)
N.gonorrhoeae; strain 92mu6
  MIC: 0.5 µg/mL (≈ 1.5 µM)
N.gonorrhoeae; strain 92mu13
  MIC: 0.5 µg/mL (≈ 1.5 µM)
PRSP; [21]
  %Sus: 0.0%
PRSP; Streptococcus pneumoniae, PRSP
  MIC90: 4 µg/mL (≈ 12 µM)
S. pneumoniae [11]
  Susceptibility: 83.6%
S. pneumoniae [12]; [21]
  %Sus: 60.6%
S. pneumoniae [12]; Streptococcus pneumoniae
  MIC90: 2 µg/mL (≈ 5.98 µM)
S. pneumoniae (Sp)
  resistance: 42%
S. pneumoniae [13]
  intermediate susceptible: 30%
S.pneumoniae
  resistance: 20.0%
[14]
  MIC90: 8 ig/ml
Streptococcus pneumoniae [15]; Ireland 1999–2000, N 66
  resistance (PEN-NS >0.06, TET-R >1, ERY-R >0.5, CIP-R >2 mg/L): 40.9%
Streptococcus pneumoniae [15]; Ireland 2000–2001, N 59
  resistance (same cut-offs): 42.4%
Streptococcus pneumoniae [15]; Ireland 2001–2002, N 68
  resistance (same cut-offs): 36.8%
Streptococcus pneumoniae [15]; Ireland 2002–2003, N 89
  resistance (same cut-offs): 24.7%
Streptococcus pneumoniae [15]; Ireland 2003–2004, N 76
  resistance (same cut-offs): 14.5%
Streptococcus pneumoniae [15]; UK 1999–2000, N 595
  resistance (same cut-offs): 7.4%
Streptococcus pneumoniae [15]; UK 2000–2001, N 608
  resistance (same cut-offs): 7.1%
Streptococcus pneumoniae [15]; UK 2001–2002, N 631
  resistance (same cut-offs): 4.6%
Streptococcus pneumoniae [15]; UK 2002–2003, N 683
  resistance (same cut-offs): 6.4%
Streptococcus pneumoniae [15]; UK 2003–2004, N 709
  resistance (same cut-offs): 5.9%
S. pneumoniae [16]; 137 isolates
  intermediate (I): 23.4%
  resistant (R): 10.2%
  susceptible (S): 66.4%
S. pneumoniae [16]; Streptococcus pneumoniae
  MIC90: 1.5 µg/mL (≈ 4.49 µM)
[17]
  MIC90: 8 ig/ml
F. necrophorum
  MIC range: 0.004 to 256 µg/mL
F. necrophorum; Fusobacterium necrophorum
  MIC50: 0.016 µg/mL (≈ 0.0478 µM)
  MIC90: > 32 µg/mL
[18]
  MIC90: 1 ig/ml
S. pneumoniae [19]; year 1: 2002
  total resistance: 23.7%
S. pneumoniae [19]; year 2: 2003
  total resistance: 23.4%
[4]; nine species
  % S, range between species: 65.5–98.1%
Streptococcus pneumoniae [20]
  resistant isolates: 14.1%
